The record followed here is patent US8420677B2, “Use of 3,3′-diindolylmethane” (priority 2008, dated 2013).

For the experiment, the system named is D257A mice. The experiment is described as follows: Auditory brainstem response (ABR) hearing function test in D257A mice fed the compounds. It counts as in vivo. The source says: The test system was D257A−/− (D257A) mice that express a proofreading-deficient version of the mitochondrial DNA polymerase γ (POLG). These mice display features of accelerated aging including age related hearing loss (presbycusis). Hearing loss can be monitored by an elevation in auditory-evoked brainstem response (Kujoth et al., Science 309, 481-484, 2005).
Heterozygous D257A (−1+) mice were bred to generate homozogous D257A (−/−) mice, denoted D257A hereafter. Animals were identified with specific numbering and ear clippings. D257A mice were placed in various dietary regimens following PCR based genotyping and weaning at 3 weeks of age. Mice received a diet based on AIN-93M maintenance purified diet (TestDiet, Richmond, USA), with neither no supplementation (Control group), or supplementation with DIM (40 mg/kg, BioResponse LLC Boulder, Colo.), (−)-epigallocatechin gallate, or (EGCG) (300 mg/kg, DSM Nutritional Products, Switzerland).
Hearing function was tested in 9 month-old D257A mice receiving the various compounds. Auditory brainstem responses (ABRs) were measured with a tone burst stimulus (8, 16 and 32 kHz) using an ABR recording system (Intelligent Hearing System, Miami Fla.). Animals were anesthetized with a mixture of xylazine hydrochloride (10 mg/kg, i.m.) and ketamine hydrochloride (40 mg/kg, i.m.), and needle electrodes were placed subcutaneously at the vertex (active electrode), beneath the pinna of the measured ear (reference electrode), and beneath the opposite ear (ground). The stimulus duration, presentation rate, and rise/fall time was 3 ms, 19.3/s, and 1 ms respectively. Responses of 1024 sweeps were averaged at each intensity level (5 dB steps) to access the hearing threshold. The hearing threshold was defined as the lowest intensity level at which a clear reproducible waveform was visible in the trace. Means of ABR thresholds were compared at 8, 16 and 32 kHz.

With `c1ccc2c(Cc3c[nH]c4ccccc34)c[nH]c2c1` [DIM, 3,3′-diindolylmethane], the “hearing threshold (auditory-evoked brain stem response threshold)” value (8 kHz, 9 month-old D257A mice, DIM 40 mg/kg in diet, control approximately 40 dB) is recorded as “approximately 10 dB”. The “deaf mice (no auditory-evoked brainstem response)” value (8 kHz, 9 month-old D257A mice, diet supplementation from weaning (DIM 40 mg/kg, EGCG 300 mg/kg), control 3 out of 8 deaf) is “no deaf mice”. For the same compound, for the setting “32 kH, 9 month-old D257A mice, compared to the control group and the other tested compounds”, the “percentage of deaf mice” value was “significantly lower”. In addition, under “supplementation from early age on, D257A mice”, the “effect on age related hearing loss” value was “protective effect”.
